{
  "source": "patent US20220169989A1",
  "about": "“HUMAN CARDIOMYOCYTE SEPARATION REAGENT, CULTURE MEDIUM, SEPARATION METHOD, AND CULTURE METHOD” (FUWAI HOSPITAL CHINESE ACADEMY OF MEDICAL SCIENCES, priority 2019, published 2022)",
  "key": {"human cardiomyocytes [1]": {"tested_on": "human cardiomyocytes", "assay": "In vitro culture of isolated human cardiomyocytes after recalcification", "format": "cell-based", "conditions": "10 μM in isolation and in M199 + 10% FBS culture; cultured for 6 days; higher than 20 mM BDM group, p<0.05", "protocol": "In addition, in order to observe whether the cell states were different when the human cardiomyocytes isolated using two calcium-free solutions (20 mM BDM and 10 μM (−)-Blebbistatin) were cultured in vitro, we performed recalcification on the isolated human cardiomyocytes. Specifically, it was difficult for human cardiomyocytes to survive in an environment without calcium ions, and the present invention adopted a 5-step gradient recalcification method to restore the calcium ion concentration of human cardiomyocytes. The concentration gradients of CaCl2 (with a stock concentration of 30 mM) added to the cell collection solution were 0.08 mM (5 min), 0.25 mM (5 min), 0.5 mM (5 min), 1 mM (5 min), and 1.8 mM (15 min) in order. The human cardiomyocytes isolated in the 20 mM BDM group were cultured using M199 medium with addition of 10% fetal bovine serum (FBS) (note: the concentration percentage of fetal bovine serum in the examples and corresponding figures was volume percentage), 100 U/ml penicillin, 100 μg/ml streptomycin and 20 mM BDM. […]"}, "human cardiomyocytes [2]": {"tested_on": "human cardiomyocytes", "assay": "Human cardiomyocyte isolation test (calcium-free solution)", "format": "cell-based", "protocol": "The cardiomyocyte isolation process generally comprises tissue transport and sectioning, calcium-free perfusion, enzyme solution digestion and cell collection. In the process, the calcium-free Tyrode's solution (calcium-free solution) was the main reagent used in the isolation process, for calcium-free perfusion, enzyme solution digestion and cell collection. The test was conducted in this invention by reference to the cardiomyocyte isolation experimental protocol described in Liang Chen, Guang-ran Guo, Man Rao, Kai Chen, Jiang-ping Song and Sheng-shou Hu, “A Modified Method for Isolation of Human Cardiomyocytes to Model Cardiac Diseases.”, Journal of Translational Medicine (2018). Specific steps were as follows:\nAn excised left atrial appendage was immediately placed in an organ preservation solution (manufactured by the University of Wisconsin, USA) (about 4° C.), and quickly transferred it to a 60 mm cell culture dish in a super clean bench, an organ preservation solution (about 4° C.) was added, and the culture dish was placed on an ice box pre-cooled in a refrigerator at −20° C. Scissors were used to remove excess fat and trim it, the tissue was adhered to a specimen stage, and a microtome (Leica VT1200S, Germany) was used to slice the tissue (300 μm) which was then manually cut into pieces in the super clean bench. The cut atrial appendage pieces were divided into three groups, and the tissues were decalcified three times using the calcium-free solution of the present invention. 15-20 ml calcium-free solution was added to an Erlenmeyer flask for calcium-free perfusion for three times. The Erlenmeyer flask was shaken at room temperature, the calcium-free solution was replaced with fresh one after 2 min and 3 min respectively, and the third calcium-free perfusion time is 4 min. After finishing the calcium-free perfusion, the calcium-free solution was discarded and enzyme solution 1 (preheated to 37° C.) formulated from the corresponding calcium-free solution was added respectively. […] The enzyme solution was collected into a 15 ml centrifuge tube, fresh enzyme solution 1 was added to the Erlenmeyer flask, and digestion was still performed in the water bath kettle. The collected enzyme solution was placed in a pre-cooled 4° C. centrifuge (Eppendorf centrifuge 5804R, Germany) for centrifugation (100×g, 1 min), and the supernatant was discarded, followed by observing whether there were cardiomyocytes in the precipitate at the tube bottom, and determining the proportion of rod-shaped cells. The second digestion is the same as the first digestion. When the rate of rod-shaped cardiomyocytes contained in the precipitate is 70% or more, the enzyme solution 1 was replaced with enzyme solution 2 formulated from the calcium-free solution used in the enzyme solution 1, and digestion was continued. This time, cardiomyocytes in the turbid enzyme solution were collected by centrifugation (4° C., 100×g, 1 min) and then resuspending cells in a 3 ml transport solution.\nIn the process, the calcium-free solution was a calcium-free solution comprising 5 μM (−)-Blebbistatin, 10 μM (−)-Blebbistatin, and 20 mM BDM, respectively."}, "human cardiomyocytes [3]": {"tested_on": "human cardiomyocytes", "assay": "Culture test: concentrations of (−)-Blebbistatin and para-aminoblebbistatin (Example 2.1)", "format": "cell-based", "protocol": "10% fetal bovine serum, 100 U/ml penicillin and 100 μg/ml streptomycin were added to M199 medium (purchased from Sigma), and the resulting medium was used as the basal medium. The experiment was divided into 9 groups, i.e. 0, 2.5, 5, 10, or 20 μM (−)-Blebbistatin, or 5 μM, 10 μM, 20 μM, or 50 μM para-aminoblebbistatin was added to the basal medium. The isolated human cardiomyocytes were divided into 9 groups, and the cells using 9 culture media were plated on a 48-well cell culture plate precoated with 200 μg laminin, and placed and cultured in a 37° C. cell incubator (with 5% CO2, and a relative saturated humidity of 95%) for 7 days, and the rates of rod-shaped cardiomyocytes were calculated."}, "[4]": {"conditions": "water solubility, known property; cited from earlier work"}, "human cardiomyocytes [5]": {"tested_on": "human cardiomyocytes", "assay": "Effect of myosin inhibitors BTS and MYK-461 on survival rate (Example 2.5)", "format": "cell-based", "conditions": "MEM-HEPES-GlutaMAX + 10% FBS, p<0.05", "protocol": "In order to explore whether there are other myosin ATPase inhibitors besides BDM and (−)-Blebbistatin that can improve the rate of rod-shaped cardiomyocytes, the effects of (−)-Blebbistatin, BTS, and MYK-461 on the activity of cardiomyocytes were compared. For the isolated human cardiomyocytes, MEM-4-hydroxyethyl piperazine ethanesulfonic acid-GlutaMAX medium comprising 10 μM (−)-Blebbistatin, BTS (at concentrations of 5 μM, 10 μM, 20 μM, 30 μM, 40 μM, or 50 μM, respectively), or MYK-461 (at concentrations of 0.5 μM, 1 μM, 2 μM, 5 μM, 10 μM, or 20 μM, respectively) respectively was used, and 10% fetal bovine serum, 100 U/ml penicillin and 100 μg/ml streptomycin were added to the medium."}, "human cardiomyocytes [6]": {"tested_on": "human cardiomyocytes", "assay": "Effect of coating composition on adherent cardiomyocytes (Example 2.2)", "format": "cell-based", "conditions": "72 hours; for number of rod-shaped cells: medium with 20 mM BDM", "protocol": "48-well culture plates were coated with the following reagents: laminin (Gibco, product number: 23017015; 50 μg/ml or 200 μg/ml, incubated overnight in a 37° C. incubator, and air dried), fibronectin (Sigma Aldrich, product number: F0895-2 MG; 5 μg/ml or 50 μg/ml, air dried), poly-L-lysine (Sigma Aldrich, product number: P04832-50 ML; 0.01%, incubated at room temperature for 5 min, air dried), and Matrigel (Corning, product number: 354234; incubated at 37° C. for 30 min). The culture medium used in this experiment was obtained by adding 20 mM BDM, 10% fetal bovine serum, 100 U/ml penicillin and 100 μg/ml streptomycin to M199 medium. The isolated cardiomyocytes were plated on coated 48-well culture plates, cultured for 72 hours (h), and photographed under a microscope. 4 fields of view were taken for each group for calculating the average number of rod-shaped cells, and the result was expressed as the mean±standard deviation."}},
  "data": [
    {"compound": "Cc1ccc2c(c1)C(=O)[C@]1(O)CCN(c3ccccc3)C1=N2", "note": "[(−)-Blebbistatin]", "values": [
      {"measurement": "rate of rod-shaped cardiomyocytes", "setting": "human cardiomyocytes [1]", "result": "≥ 80", "unit": "%"},
      {"measurement": "rod-shaped cell morphology after isolation (photomicrographs)", "setting": "human cardiomyocytes [2]; 5 μM and 10 μM", "result": "can maintain the long rod-shaped morphology of human cardiomyocytes"},
      {"measurement": "normalized rod-shaped cell rate", "setting": "human cardiomyocytes [2]; 5 μM and 10 μM in calcium-free solution, 20 mM BDM group normalized to 1.0, p<0.05", "result": "1.2-1.5"},
      {"measurement": "lengths of human cardiomyocytes isolated", "setting": "human cardiomyocytes [2]; 5 μM and 10 μM vs 20 mM BDM group, p<0.05", "result": "remarkably longer than those in the 20 mM BDM group"},
      {"measurement": "state of cardiomyocytes (culture images)", "setting": "human cardiomyocytes [3]; 5 μM and 10 μM vs 0 μM, after 1 day of culture", "result": "remarkably better than in the 0 μM group"},
      {"measurement": "long rod-shaped morphology of cardiomyocytes (culture images)", "setting": "human cardiomyocytes [3]; 10 μM compared with 5 μM, 1 day, more obvious after 7 days", "result": "better maintained the long rod-shaped morphology of cardiomyocytes"},
      {"measurement": "rate of rod-shaped cells", "setting": "human cardiomyocytes [3]; 2.5, 5, 10, 20 μM vs 0 μM, M199 + 10% FBS, 7 days, p<0.001", "result": "remarkably higher than that in the group without (−)-Blebbistatin"},
      {"measurement": "solubility", "setting": "[4]", "result": "10.9 ± 0.9", "unit": "µM"}
    ]},
    {"compound": "CC(=O)C(C)=NO", "note": "[BDM, 2,3-butanedione monoxime]", "values": [
      {"measurement": "rod-shaped cell morphology after isolation (photomicrographs)", "setting": "human cardiomyocytes [2]; 20 mM", "result": "not well maintained"},
      {"measurement": "normalized rod-shaped cell rate", "setting": "human cardiomyocytes [2]; 20 mM in calcium-free solution, reference of the normalization", "result": 1.0}
    ]},
    {"compound": "Cc1ccc(S(=O)(=O)NCc2ccccc2)cc1", "note": "[BTS, N-benzyl-p-toluenesulfonamide]", "values": [
      {"measurement": "percentages of rod-shaped cells", "setting": "human cardiomyocytes [5]; 5-50 μM vs 10 μM (−)-Blebbistatin", "result": "significantly lower than the percentage in the (−)-Blebbistatin group"}
    ]},
    {"compound": "CC(C)n1c(=O)cc(N[C@@H](C)c2ccccc2)[nH]c1=O", "note": "[MYK-461]", "values": [
      {"measurement": "percentages of rod-shaped cells", "setting": "human cardiomyocytes [5]; 0.5-20 μM vs 10 μM (−)-Blebbistatin", "result": "significantly lower than the percentage in the (−)-Blebbistatin group"}
    ]},
    {"compound": "Cc1ccc2c(c1)C(=O)[C@]1(O)CCN(c3ccc(N)cc3)C1=N2", "note": "[para-aminoblebbistatin]", "values": [
      {"measurement": "viability / survival rate of human cardiomyocytes", "setting": "human cardiomyocytes [3]; 10 μM para-aminoblebbistatin vs 10 μM (−)-Blebbistatin, 7 days", "result": "no statistical difference"},
      {"measurement": "survival rate of cardiomyocytes", "setting": "human cardiomyocytes [3]; 5-50 μM, 7 days", "result": "can significantly improve the survival rate of cardiomyocytes"}
    ]},
    {"compound": "fibronectin", "values": [
      {"measurement": "number of rod-shaped cells", "setting": "human cardiomyocytes [6]; coating 5 μg/ml, 50 μg/ml", "result": "significantly lower than that in the Matrigel group, 50 μg/ml laminin group and 200 μg/ml laminin group"}
    ]},
    {"compound": "laminin", "values": [
      {"measurement": "number of rod-shaped cells", "setting": "human cardiomyocytes [6]; coating 200 μg/ml", "result": "highest number of rod-shaped cells"},
      {"measurement": "adherence and growth of cardiomyocytes", "setting": "human cardiomyocytes [6]; coating, laminin 50-200 μg/ml", "result": "can allow cardiomyocytes to adhere and grow"}
    ]}
  ]
}
